Where “and” joins values, the source holds several entries; their conditions need not be identical. Equal entries are not always repeated. After the bases stand the sugars from the 5' end (letter, count) and the backbone: PS all phosphorothioate, else s phosphorothioate and o phosphodiester by linkage. Methylation of C is not given here. k = constrained ethyl (cEt); d = 2'-deoxy (DNA)
Molecular target: MALAT1
Details: ASO, A431, 0.005 µM

CTAACCCAGTTTGTCA (sugars k3 d10 k3, PS) showed a target mRNA inhibition of 35%.

CTAAGACTTTAAGTTC (sugars k3 d10 k3, PS) showed a target mRNA inhibition of 27%.

Work on CTAAGATGCTAGCTTG (sugars k3 d10 k3, PS) yielded a target mRNA inhibition of -26%.

For CTAAGCGAATGGCTTT (sugars k3 d10 k3, PS), the target mRNA inhibition was 22%.

With CTAATAGCAGCGGGAT (sugars k3 d10 k3, PS) the target mRNA inhibition was 22%.

Sequence CTAATCACTGTCAATT (sugars k3 d10 k3, PS) has a target mRNA inhibition of -1%.

CTACAACAAGTAAGCC (sugars k3 d10 k3, PS) gave a target mRNA inhibition of 7%.

CTACCATATCCAAACA (sugars k3 d10 k3, PS) gave a target mRNA inhibition of 21%.

For CTACCTTCATCACCAA (sugars k3 d10 k3, PS), the target mRNA inhibition was 2%.

CTACTATTTCTCCAGG (sugars k3 d10 k3, PS) was tested, and the target mRNA inhibition was 41%.

For CTACTTAGCTGTGGTT (sugars k3 d10 k3, PS), the target mRNA inhibition was 33%.

Sequence CTAGACAGACCTAAGG (sugars k3 d10 k3, PS) has a target mRNA inhibition of 2%.

CTAGGATCCTCTACGC (sugars k3 d10 k3, PS) was tested, and the target mRNA inhibition was 11%.

Work on CTATAAGGACAGCTAA (sugars k3 d10 k3, PS) yielded a target mRNA inhibition of 4%.

In the case of CTATAGTCTGAAGAAT (sugars k3 d10 k3, PS), the target mRNA inhibition is reported as 22%.

For CTATCTGAAACTCTTG (sugars k3 d10 k3, PS), the target mRNA inhibition was 57% and 34%.

For CTATTCCTTTCATAGA (sugars k3 d10 k3, PS), the target mRNA inhibition was -11%.

CTATTGTCCCATAACT (sugars k3 d10 k3, PS) was tested, and the target mRNA inhibition was 38%.

With CTCAAATGCCTATCTT (sugars k3 d10 k3, PS) the target mRNA inhibition was 19%.

CTCAATTTGGCTATCA (sugars k3 d10 k3, PS) was tested, and the target mRNA inhibition was 60% and 80%.

CTCACAAGGCAAATCG (sugars k3 d10 k3, PS) was tested, and the target mRNA inhibition was -12%.

CTCACATGCCAGTTAC (sugars k3 d10 k3, PS) was tested, and the target mRNA inhibition was 51%.

CTCATACACTCACTAG (sugars k3 d10 k3, PS) showed a target mRNA inhibition of 0%.

In the case of CTCATTTATTTCGGCT (sugars k3 d10 k3, PS), the target mRNA inhibition is reported as 78% and 93%.

CTCCATGAAGAAGCTT (sugars k3 d10 k3, PS) gave a target mRNA inhibition of 49%.

CTCCCAATTAATCTTT (sugars k3 d10 k3, PS) gave a target mRNA inhibition of 27%.

Work on CTCCCCCATTATATTA (sugars k3 d10 k3, PS) yielded a target mRNA inhibition of 31%.

Work on CTCCCCGCCTGAGCCC (sugars k3 d10 k3, PS) yielded a target mRNA inhibition of -23%.

Work on CTCCGAAGACACAGAG (sugars k3 d10 k3, PS) yielded a target mRNA inhibition of -3%.

CTCCGTGTGGTTGCCA (sugars k3 d10 k3, PS) gave a target mRNA inhibition of 24%.

With CTCCTGACAAATTATA (sugars k3 d10 k3, PS) the target mRNA inhibition was 17%.

For CTCCTGAGATGACTGA (sugars k3 d10 k3, PS), the target mRNA inhibition was 39%.

For CTCTAACCCAGTTTGT (sugars k3 d10 k3, PS), the target mRNA inhibition was 36%.

Work on CTCTAAGATTGTAAGC (sugars k3 d10 k3, PS) yielded a target mRNA inhibition of 16%.

CTCTTCTGATAACGAA (sugars k3 d10 k3, PS) was tested, and the target mRNA inhibition was 23%.

CTGAAAACTCCCCCCC (sugars k3 d10 k3, PS) showed a target mRNA inhibition of -2%.

CTGAAGTTCTCCTGAG (sugars k3 d10 k3, PS) was tested, and the target mRNA inhibition was 38%.

CTGAGAAAACAATACG (sugars k3 d10 k3, PS) showed a target mRNA inhibition of 8%.

Work on CTGCAAACTTTAGACA (sugars k3 d10 k3, PS) yielded a target mRNA inhibition of 7%.

CTGCACCACCAGAAAT (sugars k3 d10 k3, PS) showed a target mRNA inhibition of 20%.

With CTGCATCTAGGCCATC (sugars k3 d10 k3, PS) the target mRNA inhibition was 65% and 52%.

CTGCATTTACTTGCCA (sugars k3 d10 k3, PS) was tested, and the target mRNA inhibition was 17%.

Work on CTGCCAGGCTGGTTAT (sugars k3 d10 k3, PS) yielded a target mRNA inhibition of 1%.

With CTGCGCTGGCTGCCTC (sugars k3 d10 k3, PS) the target mRNA inhibition was 30%.

CTGCGGCCCCCCAGTT (sugars k3 d10 k3, PS) gave a target mRNA inhibition of 25%.

Work on CTGCTACCTTCATCAC (sugars k3 d10 k3, PS) yielded a target mRNA inhibition of 39%.

Work on CTGGAATGGCCAGCCT (sugars k3 d10 k3, PS) yielded a target mRNA inhibition of 15%.

Work on CTGGATAAGTATTATA (sugars k3 d10 k3, PS) yielded a target mRNA inhibition of 28%.

CTGGCATGAGTTTATC (sugars k3 d10 k3, PS) gave a target mRNA inhibition of 27%.

For CTGGTTATGACTCAGA (sugars k3 d10 k3, PS), the target mRNA inhibition was 1%.

CTGTCTAAGAGGTTAT (sugars k3 d10 k3, PS) gave a target mRNA inhibition of 7%.

Work on CTGTTAACAGCTGCCT (sugars k3 d10 k3, PS) yielded a target mRNA inhibition of 52%.

In the case of CTGTTACACCTTGAGT (sugars k3 d10 k3, PS), the target mRNA inhibition is reported as 33%.

In the case of CTGTTATGTTCACCTG (sugars k3 d10 k3, PS), the target mRNA inhibition is reported as 56% and 77%.

CTTAACAGCTTATGGA (sugars k3 d10 k3, PS) showed a target mRNA inhibition of 30%.

With CTTACTGGGTCTGGCT (sugars k3 d10 k3, PS) the target mRNA inhibition was 41%.

CTTACTTGATAATACA (sugars k3 d10 k3, PS) was tested, and the target mRNA inhibition was 35%.

For CTTAGTAACCTATTGA (sugars k3 d10 k3, PS), the target mRNA inhibition was 34%.

Work on CTTATCAATTCACCAA (sugars k3 d10 k3, PS) yielded a target mRNA inhibition of 47%.

CTTCACCAAATCGCAC (sugars k3 d10 k3, PS) was tested, and the target mRNA inhibition was -13%.

CTTCAGACAAGATTCA (sugars k3 d10 k3, PS) gave a target mRNA inhibition of 24%.

In the case of CTTCAGGCGAGCTGAG (sugars k3 d10 k3, PS), the target mRNA inhibition is reported as -4%.

Work on CTTCCCTATATAAGGT (sugars k3 d10 k3, PS) yielded a target mRNA inhibition of 10%.

CTTCCGCCGCCTCTTA (sugars k3 d10 k3, PS) showed a target mRNA inhibition of 9%.

CTTCGCCTTCCCGTAC (sugars k3 d10 k3, PS) was tested, and the target mRNA inhibition was 35%.

CTTCTAAGTTTGTACA (sugars k3 d10 k3, PS) was tested, and the target mRNA inhibition was 47%.

CTTCTGGAAAAGCTAG (sugars k3 d10 k3, PS) showed a target mRNA inhibition of 8%.

CTTGAATGCAAACTAC (sugars k3 d10 k3, PS) showed a target mRNA inhibition of -6%.

CTTGACAAGCAATTAA (sugars k3 d10 k3, PS) gave a target mRNA inhibition of 30%.

Sequence CTTTAGGATTCTAGAC (sugars k3 d10 k3, PS) has a target mRNA inhibition of 7%.

CTTTTTAAAAGATCGC (sugars k3 d10 k3, PS) showed a target mRNA inhibition of 31%.

Work on GAAAACTCCCCCCCGC (sugars k3 d10 k3, PS) yielded a target mRNA inhibition of -4%.

GAAAAGTGGTTGCCCG (sugars k3 d10 k3, PS) gave a target mRNA inhibition of 32%.

In the case of GAAAGATTTGAGCTGC (sugars k3 d10 k3, PS), the target mRNA inhibition is reported as -10%.

With GAAAGTCCTTCACATT (sugars k3 d10 k3, PS) the target mRNA inhibition was 22%.

GAAAGTGCTCACAAGG (sugars k3 d10 k3, PS) showed a target mRNA inhibition of 6%.

For GAAATCGGAGCAGCAC (sugars k3 d10 k3, PS), the target mRNA inhibition was 1%.

For GAAATCTATTCAATAC (sugars k3 d10 k3, PS), the target mRNA inhibition was 24%.

Work on GAACCCCGTCCTGGAA (sugars k3 d10 k3, PS) yielded a target mRNA inhibition of -18%.

For GAACTAGCACCTGCAG (sugars k3 d10 k3, PS), the target mRNA inhibition was 4%.

Sequence GAACTATCACAATTCT (sugars k3 d10 k3, PS) has a target mRNA inhibition of 3%.

For GAAGTGTACTATCCCA (sugars k3 d10 k3, PS), the target mRNA inhibition was 72% and 93%.

With GAATACTCTTCCAAGG (sugars k3 d10 k3, PS) the target mRNA inhibition was 16%.

In the case of GAATCCCCCCCAAGAT (sugars k3 d10 k3, PS), the target mRNA inhibition is reported as -15%.

Work on GAATCCTGTCTGCTGC (sugars k3 d10 k3, PS) yielded a target mRNA inhibition of 33%.

For GAATTCAACTGGAAGC (sugars k3 d10 k3, PS), the target mRNA inhibition was 7%.

Work on GACAAGATTCATGAGT (sugars k3 d10 k3, PS) yielded a target mRNA inhibition of 47%.

Work on GACAGATTAGTAGTCA (sugars k3 d10 k3, PS) yielded a target mRNA inhibition of -12%.

GACATTCAAGCTGAAC (sugars k3 d10 k3, PS) gave a target mRNA inhibition of 53%.

Work on GACCAACCCCCAGTTC (sugars k3 d10 k3, PS) yielded a target mRNA inhibition of 3%.

For GACCAACTAAGCGAAT (sugars k3 d10 k3, PS), the target mRNA inhibition was 39%.

GAGAAACCTACAACAC (sugars k3 d10 k3, PS) showed a target mRNA inhibition of 11%.

Work on GAGAACAACTCGCATC (sugars k3 d10 k3, PS) yielded a target mRNA inhibition of 20%.

For GAGAACTGCTCTAGTT (sugars k3 d10 k3, PS), the target mRNA inhibition was 34%.

GAGCCAAGCACTCATA (sugars k3 d10 k3, PS) showed a target mRNA inhibition of 6%.

GAGGCAAACGAAACAT (sugars k3 d10 k3, PS) was tested, and the target mRNA inhibition was 1%.

With GAGTAACTACCAGCCA (sugars k3 d10 k3, PS) the target mRNA inhibition was 37%.

With GAGTATAAGCCTGAAA (sugars k3 d10 k3, PS) the target mRNA inhibition was 16%.

For GATAAAAGCAGCTCCA (sugars k3 d10 k3, PS), the target mRNA inhibition was 30%.

In the case of GATAACGAAGAGATAC (sugars k3 d10 k3, PS), the target mRNA inhibition is reported as 19%.

In the case of GATATTGTGCTGTTAC (sugars k3 d10 k3, PS), the target mRNA inhibition is reported as -17%.

Sequence GATCGCCTTCAAATTA (sugars k3 d10 k3, PS) has a target mRNA inhibition of 39%.

For GATGCTAGCTTGGCCA (sugars k3 d10 k3, PS), the target mRNA inhibition was -2%.

Sequence GATGGACATTGCCTCT (sugars k3 d10 k3, PS) has a target mRNA inhibition of 37%.

Sequence GATTATCCTGATATTG (sugars k3 d10 k3, PS) has a target mRNA inhibition of 4%.

GATTCACTGAATCCAC (sugars k3 d10 k3, PS) was tested, and the target mRNA inhibition was 8%.

In the case of GATTCCGTAACTTTAA (sugars k3 d10 k3, PS), the target mRNA inhibition is reported as 69% and 90%.

Work on GATTCTAACAGCACAT (sugars k3 d10 k3, PS) yielded a target mRNA inhibition of 31%.

Work on GCACAGCGGTACACTC (sugars k3 d10 k3, PS) yielded a target mRNA inhibition of 9%.

With GCAGATAATGTTCTCA (sugars k3 d10 k3, PS) the target mRNA inhibition was 73% and 95%.

With GCAGGCAAATTAATGG (sugars k3 d10 k3, PS) the target mRNA inhibition was 45%.

GCAGGCTATTACCTGA (sugars k3 d10 k3, PS) showed a target mRNA inhibition of 19%.

For GCATACCTTAACATCT (sugars k3 d10 k3, PS), the target mRNA inhibition was 54% and 44%.

GCATTACAGTTCTTGA (sugars k3 d10 k3, PS) was tested, and the target mRNA inhibition was 72% and 75%.

Reference: the OligoGym collection
